Laboratory results taken from patent publication US20140234888A1, “Method for Improved Selection of Therapeutic Agents” (priority 2013, published 2014).

Experiments:
blood cell fraction = assay: TDR-test in vitro, blood of patient B. (Example 2); assay type: cell-based, human; details: for reduction TDR: patient B. blood, after 24 hours of incubation
Procedure: Individual selection of anticancer chemotherapy was based on testing the dynamics of TDR in blood with cytostatics—Etoposide (in single therapeutic doses 80-100-120 mg/m2), Cisplatin (25-50-75-100 mg/m2), Carboplatin (150-300-450 mg/m2), Gemcitabine (800-1000-1200 mg/m2), Navelbine (25-30-35 mg/m2), Doxorubicin (20-30-40 mg/m2), Epidoxorubicin (50-70-90 mg/m2), Mitomycin C (4-6-8 mg/m2).

whole blood = assay: TDR-test in vitro, blood of patient G. (Example 1); assay type: cell-based, human; details: for reduction TDR: after 24 hours of incubation
patient's blood = assay: TDR-test in vitro, blood of patient M. (Example 4); details: various doses, 1, 2 and 24 hours
Procedure: Therefore, we first proposed to take, in fact, it is a dynamic integrated assessment test “in vitro” level of nonspecific resistance to therapeutic agents during interaction with the blood of the patient. Selection of optimal treatments, their doses and combinations proposed to control the TDR dynamics within 24-72 hours, with some time intervals. The choice of temporary interval for determination the TDR dynamic is defined of main stage of the biochemical interaction of medicine (or non-drug therapeutic influence) with blood of the patient in vitro (phase 1—induction of biochemical reactions within the first 10-40 minutes, 2nd—for 1-3 hours, 3rd—within 24-72 hours). Therefore, TDR is expedient to record in intervals of precisely these three main stages of the induced signal transduction and protein synthesis (30-60 minutes, 2-3 hours, 24-72 hours after the start of testing).

[1] = test system: microflora of the respiratory tract; assay: Sputum sample sensitivity to antibiotics (antibiotikogramma); assay type: cell-based; details: sputum sample of patient M.
[2] = test system: Chronic obstructive bronchitis; assay: Treatment of patient M.; assay type: in vivo, human; details: endobronchial 250 mg followed by inductothermy 30 minutes, 1 treatment per day, 10 procedures, 2 weeks
Procedure: Based on the results of investigations the patient was assigned to a combination of antibiotic Cefazolin and inductothermy: endobronchial administration of Cefazolin 250 mg and immediately after this session inductothermy the projection of the large bronchi in the anterior-posterior direction with opposing fields of the two vehicles “Magniterm” for 30 minutes.

[3] = test system: Chronic rhinitis of allergic origin, chronic bronchitis; assay: Treatment of patient F.; assay type: in vivo, human; details: before individual testing
Procedure: Diagnosis: “Chronic rhinitis of allergic origin, chronic bronchitis, allergic component in the acute stage.” In history: positive allergic reactions to penicillin antibiotics, the lack of reaction to tetracycline antibiotics. […] Doxycycline is used in doses of 100 mg and 200 mg on admission; when calculating the duration of induktothermy effect was adopted by the duration of the patient's blood sample for 2 seconds, which corresponds to the length of the actual procedure, 25-30 minutes.

## N.N.O=C([O-])C1(C(=O)[O-])CCC1.[Pt+2] [Carboplatin]
Blood cell fraction; dose 350 mg/m2
  reduction TDR: 27%
Whole blood; dose 450 mg/m2
  reduction TDR: 36%

## Cc1nnc(SCC2=C(C(=O)O)N3C(=O)[C@@H](NC(=O)Cn4cnnn4)[C@H]3SC2)s1 [Cefazolin]
patient's blood
  change of TDR in blood samples during the incubation: progressive decrease
[1]
  sensitivity of the microflora to the antibiotic: highly sensitive
[2]
  clinical outcome: sustained remission of chronic bronchitis

## N.N.[Cl][Pt][Cl] [Cisplatin]
Blood cell fraction; dose 100 mg/m2
  reduction TDR: 32%
Whole blood; dose 75 mg/m2
  reduction TDR: 32%

## O=P1(N(CCCl)CCCl)NCCCO1 (stereo not drawn) [Cyclophosphamide]
Whole blood; dose 600 mg/m2
  reduction TDR: 30%

## CN1CCc2c(c3ccccc3n2Cc2ccccc2)C1 [Diazolin]
[3]
  efficiency of conventional therapy: low efficiency

## CC[C@H]1OC(=O)[C@H](C)[C@@H](O[C@H]2C[C@@](C)(OC)[C@@H](O)[C@H](C)O2)[C@H](C)[C@@H](O[C@@H]2O[C@H](C)C[C@H](N(C)C)[C@H]2O)[C@](C)(O)C[C@@H](C)C(=O)[C@H](C)[C@@H](O)[C@]1(C)O [Erythromycin]
[3]
  efficiency of conventional therapy: low efficiency

## COc1cc([C@@H]2c3cc4c(cc3[C@@H](O[C@@H]3O[C@@H]5CO[C@@H](C)O[C@H]5[C@H](O)[C@H]3O)[C@H]3COC(=O)[C@H]23)OCO4)cc(OC)c1O [Etoposide]
Blood cell fraction; dose 120 mg/m2
  reduction TDR: 21%

## CC(=O)N[C@H]1[C@H](O[C@H]2[C@H](O[C@H](C)C(=O)N[C@@H](C)C(=O)N[C@H](CCC(=O)O)C(N)=O)[C@@H](NC(C)=O)C(O)O[C@@H]2CO)O[C@H](CO)[C@@H](O)[C@@H]1O (stereo partly drawn) [GMDP, glucosomuramyldipeptide]
Blood cell fraction; patient B. blood cell fraction, after 1 hour of incubation, dose 50 mg
  increase in TDR compared with the control: 78%
Blood cell fraction; patient B. blood cell fraction, after 24 h of incubation, dose 10 mg
  increase in TDR: 228%
Whole blood; 24 h incubation, dose 5 mg
  TDR increase compared to control: 64%

## Nc1ccn([C@@H]2O[C@H](CO)[C@@H](O)C2(F)F)c(=O)n1 [Gemcitabine]
Blood cell fraction; dose 1200 mg/m2
  reduction TDR: 30%

## CCC1=C[C@@H]2CN(C1)Cc1c([nH]c3ccccc13)[C@@](C(=O)OC)(c1cc3c(cc1OC)N(C)[C@H]1[C@@](O)(C(=O)OC)[C@H](OC(C)=O)[C@]4(CC)C=CCN5CC[C@]31[C@@H]54)C2 [Navelbine]
Blood cell fraction; dose 25 mg/m2
  reduction TDR: 20%

## CC(=O)O[C@H]1C(=O)[C@@]2(C)[C@H]([C@H](OC(=O)c3ccccc3)[C@]3(O)C[C@H](OC(=O)[C@H](O)[C@@H](NC(=O)c4ccccc4)c4ccccc4)C(C)=C1C3(C)C)[C@]1(OC(C)=O)CO[C@@H]1C[C@@H]2O [Paclitaxel]
Blood cell fraction; dose 190 mg/m2
  reduction TDR: 25%
Whole blood; dose 175 mg/m2
  reduction TDR: 28%
